Test results: US10300071B2, “Compositions and methods for inhibition of mycobacteria” (priority 2014, dated 2019)
In brackets after ≈: the same amount, converted by molar mass. Read-outs that look alike come from different tables or passages of the source.

Key:
[1] = target: Mtb AccD6 (Mycobacterium tuberculosis, UniProt P9WQH5); assay: biochemical; type: biochemical; details: for IC50: 300 μM malonyl-CoA, inhibitor 10 μM to 2000 μM; for Mtb AccD6 inhibition: preliminary studies of commercially available herbicides; for inhibition at 20 µM: read-out: inhibition at 20 uM
Mtb AccD6, sequence (P9WQH5 whole entry, looked up): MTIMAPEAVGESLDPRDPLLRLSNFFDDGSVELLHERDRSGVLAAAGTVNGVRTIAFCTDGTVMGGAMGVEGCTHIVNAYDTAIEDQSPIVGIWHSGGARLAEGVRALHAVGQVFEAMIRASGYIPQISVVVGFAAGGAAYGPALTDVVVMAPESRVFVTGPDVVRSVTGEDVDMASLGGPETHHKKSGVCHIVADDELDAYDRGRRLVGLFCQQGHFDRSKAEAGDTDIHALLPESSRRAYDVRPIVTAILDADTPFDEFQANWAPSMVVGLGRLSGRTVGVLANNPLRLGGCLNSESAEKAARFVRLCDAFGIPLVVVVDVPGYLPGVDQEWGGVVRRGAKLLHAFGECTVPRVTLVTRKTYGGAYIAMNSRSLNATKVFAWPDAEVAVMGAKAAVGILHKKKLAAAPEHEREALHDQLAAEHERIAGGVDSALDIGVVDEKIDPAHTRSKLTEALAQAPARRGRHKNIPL

[2] = tested on: Mtb strain mc^2-7000; assay: microbe, parasite or virus in culture; type: cell-based, Mycobacterium tuberculosis; details: for MIC: 6 days incubation at 37° C., resazurin, read on the 7th day; for whole Mycobacterium tuberculosis cell inhibition: preliminary studies of commercially available herbicides
[3] = tested on: S. cerevisiae
[4] = Mycobacterium tuberculosis, 144 h, read-out: MIC

Cc1ccc2nc(Oc3ccc(NC(=O)NC(C)C)cc3)sc2c1 [NZ-358, 1-{4-[(6-methyl-1,3-benzothiazol-2-yl)oxy]phenyl}-3-(propan-2-yl)urea]
IC50 ([1]; read-out: IC50): 20 µM
MIC [2, 4]: 5.8 µM (≈ 1.98 µg/mL)
concentrations at which not toxic, s. cerevisiae cytotoxicity [3]: ≥ 100 µM

CN(C)C(=O)Nc1ccc(Oc2nc3ccc(Cl)cc3s2)cc1 [NZ-354, 1-{4-[(6-chloro-1,3-benzothiazol-2-yl)oxy]phenyl}-3,3-dimethylurea]
IC50 ([1]; read-out: IC50): 7.3 µM
MIC [2, 4]: 1 µM (≈ 0.348 µg/mL)
concentrations at which not toxic, s. cerevisiae cytotoxicity [3]: 50 to 100 µM

CNC(=O)NCc1ccc(Oc2nc3ccc(Cl)cc3s2)cc1 [NZ-350, 1-({4-[(6-chloro-1,3-benzothiazol-2-yl)oxy]phenyl}methyl)-3-methylurea]
IC50 ([1]; read-out: IC50): 1.6 µM
MIC [2]: Not Active
concentrations at which not toxic, s. cerevisiae cytotoxicity [3]: ≥ 100 µM

CN(C)C(=O)NCc1ccc(Oc2nc3ccc(Cl)cc3s2)cc1 [NZ-349, 1-({4-[(6-chloro-1,3-benzothiazol-2-yl)oxy]phenyl}methyl)-3,3-dimethylurea]
IC50 ([1]; read-out: IC50): 7 µM
MIC [2, 4]: 8 µM (≈ 2.89 µg/mL)
concentrations at which not toxic, s. cerevisiae cytotoxicity [3]: ≥ 100 µM

CNC(=O)Nc1ccc(Oc2nc3ccc(Cl)cc3s2)cc1 [NZ-353, 1-{4-[(6-chloro-1,3-benzothiazol-2-yl)oxy]phenyl}-3-methylurea]
IC50 ([1]; read-out: IC50): 4 µM
MIC [2]: Not Active
concentrations at which not toxic, s. cerevisiae cytotoxicity [3]: ≥ 100 µM

CC(Oc1ccc(Oc2ccc(C(F)(F)F)cn2)cc1)C(=O)O (centres unmarked) [fluazifop, reference compound]
Mtb AccD6 inhibition [1]: only haloxyfop exhibited Mtb AccD6 inhibition
whole Mycobacterium tuberculosis cell inhibition [2]: none exhibited whole Mycobacterium tuberculosis cell inhibition

CNC(=O)COc1ccc(Oc2cnc3cc(Cl)ccc3n2)cc1 [NZ-267, 2-{4-[(6-chloroquinoxalin-2-yl)oxy]phenoxy}-N-methylacetamide]
IC50 ([1]; read-out: IC50): 2.4 µM
MIC [2, 4]: > 25 µM

cyhalofop [reference compound]
Mtb AccD6 inhibition [1]: only haloxyfop exhibited Mtb AccD6 inhibition
whole Mycobacterium tuberculosis cell inhibition [2]: none exhibited whole Mycobacterium tuberculosis cell inhibition

O=C(COc1ccc(Oc2cnc3cc(Cl)ccc3n2)cc1)N1CCNCC1 [NZ-277, 2-{4-[(6-chloroquinoxalin-2-yl)oxy]phenoxy}-1-(piperazin-1-yl)ethan-1-one]
IC50 ([1]; read-out: IC50): 5.6 µM
MIC [2, 4]: 12.5 µM (≈ 4.99 µg/mL)

Clc1ccc2nc(Oc3ccc(OCc4nnn[nH]4)cc3)cnc2c1 [NZ-268, 6-chloro-2-[4-(1H-1,2,3,4-tetrazol-5-ylmethoxy)phenoxy]quinoxaline]
IC50 ([1]; read-out: IC50): 1.7 µM
MIC [2, 4]: > 12.5 µM

CC(O)COc1ccc(Oc2cnc3cc(Cl)ccc3n2)cc1 (centres unmarked) [NZ-264, 1-{4-[(6-chloroquinoxalin-2-yl)oxy]phenoxy}propan-2-ol]
IC50 ([1]; read-out: IC50): 3.4 µM
MIC [2, 4]: > 12.5 µM

O=C(COc1ccc(Oc2cnc3cc(Cl)ccc3n2)cc1)NO [NZ-286, 2-{4-[(6-chloroquinoxalin-2-yl)oxy]phenoxy}-N-hydroxyacetamide]
IC50 ([1]; read-out: IC50): 1.4 µM
MIC [2, 4]: 3 µM (≈ 1.04 µg/mL)

N#CCOc1ccc(Oc2cnc3cc(Cl)ccc3n2)cc1 [NZ-263, 2-{4-[(6-chloroquinoxalin-2-yl)oxy]phenoxy}acetonitrile]
IC50 ([1]; read-out: IC50): 7.8 µM
MIC [2, 4]: > 50 µM

COC(C(=O)O)c1ccc(Oc2nc3ccc(Cl)cc3s2)cc1 (centres unmarked) [NZ-356, 2-{4-[(6-chloro-1,3-benzothiazol-2-yl)oxy]phenyl}-2-methoxyacetic acid]
IC50 ([1]; read-out: IC50): 1.7 µM
MIC [2, 4]: 25 µM (≈ 8.74 µg/mL)
concentrations at which not toxic, s. cerevisiae cytotoxicity [3]: ≥ 100 µM

CC(C)NC(=O)Nc1ccc(Oc2nc3ccc(Br)cc3s2)cc1 [NZ-359, 1-{4-[(6-bromo-1,3-benzothiazol-2-yl)oxy]phenyl}-3-(propan-2-yl)urea]
IC50 ([1]; read-out: IC50): 8.4 µM
MIC [2, 4]: > 50 µM
concentrations at which not toxic, s. cerevisiae cytotoxicity [3]: ≥ 100 µM

O=C(COc1ccc(Oc2cnc3cc(Cl)ccc3n2)cc1)NS(=O)(=O)C(F)(F)F [NZ-275, 2-{4-[(6-chloroquinoxalin-2-yl)oxy]phenoxy}-N-trifluoromethanesulfonylacetamide]
IC50 ([1]; read-out: IC50): 3.8 µM
MIC [2, 4]: 12.5 µM (≈ 5.77 µg/mL)

Clc1ccc2nc(Oc3ccc(OCc4ncc[nH]4)cc3)cnc2c1 [NZ-273, 6-chloro-2-[4-(1H-imidazol-2-ylmethoxy)phenoxy]quinoxaline]
IC50 ([1]; read-out: IC50): 7.9 µM
MIC [2, 4]: > 25 µM

COC(=O)C(OC)c1ccc(Oc2nc3ccc(Cl)cc3s2)cc1 (centres unmarked) [NZ-355, methyl 2-{4-[(6-chloro-1,3-benzothiazol-2-yl)oxy]phenyl}-2-methoxyacetate]
IC50 ([1]; read-out: IC50): 20 µM
MIC [2, 4]: 4.5 µM (≈ 1.64 µg/mL)
concentrations at which not toxic, s. cerevisiae cytotoxicity [3]: ≥ 100 µM

CS(=O)(=O)NC(=O)COc1ccc(Oc2cnc3cc(Cl)ccc3n2)cc1 [NZ-259, 2-{4-[(6-chloroquinoxalin-2-yl)oxy]phenoxy}-N-methanesulfonylacetamide]
IC50 ([1]; read-out: IC50): 1.6 to 2.6 µM
MIC [2, 4]: > 50 µM

Nc1ccc(Oc2nc3ccc(Cl)cc3s2)cc1 [NZ-352, 4-[(6-chloro-1,3-benzothiazol-2-yl)oxy]aniline]
IC50 [1]: Not Active
MIC [2, 4]: 1.5 µM (≈ 0.415 µg/mL)
concentrations at which not toxic, s. cerevisiae cytotoxicity [3]: 25 to 50 µM

CC(C)NC(=O)Cc1ccc(Oc2nc3cc(F)c(F)cc3s2)cc1 [NZ-403, 2-{4-[(5,6-difluoro-1,3-benzothiazol-2-yl)oxy]phenyl}-N-(propan-2-yl)acetamide]
IC50 ([1]; read-out: IC50): 0.16 µM
MIC [2, 4]: 1.24 µM (≈ 0.449 µg/mL)

C=CCO/N=C(\CCC)C1=C(O)C(C(=O)OC)C(C)(C)CC1=O (centres unmarked) [alloxydim, reference compound]
Mtb AccD6 inhibition [1]: only haloxyfop exhibited Mtb AccD6 inhibition
whole Mycobacterium tuberculosis cell inhibition [2]: none exhibited whole Mycobacterium tuberculosis cell inhibition

CC(C(=O)NCC(O)CO)c1ccc(Oc2nc3ccc(Cl)cc3s2)cc1 (centres unmarked) [NZ-372, 2-{4-[(6-chloro-1,3-benzothiazol-2-yl)oxy]phenyl}-N-(2,3-dihydroxypropyl)propanamide]
IC50 ([1]; read-out: IC50): 2.75 µM
MIC [2, 4]: 4.67 µM (≈ 1.9 µg/mL)
concentrations at which not toxic, s. cerevisiae cytotoxicity [3]: ≥ 100 µM

CN(C)C(=O)COc1ccc(Oc2cnc3cc(Cl)ccc3n2)cc1 [NZ-262, 2-{4-[(6-chloroquinoxalin-2-yl)oxy]phenoxy}-N,N-dimethylacetamide]
IC50 ([1]; read-out: IC50): 1.8 µM
MIC [2, 4]: > 25 µM

Cc1cccc(Oc2nc3ccc(Cl)cc3s2)c1 [NZ-291, 6-chloro-2-(3-methylphenoxy)-1,3-benzothiazole]
inhibition at 20 µM [1]: 30%
MIC [2, 4]: 25 µM (≈ 6.89 µg/mL)

CC(C)(C)OC(=O)Nc1ccc(Oc2nc3ccc(Cl)cc3s2)cc1 [NZ-351, tert-butyl N-{4-[(6-chloro-1,3-benzothiazol-2-yl)oxy]phenyl}carbamate]
IC50 [1]: Not Active
MIC [2]: Not Active
concentrations at which not toxic, s. cerevisiae cytotoxicity [3]: ≥ 100 µM

CC(C)NC(=O)Cc1ccc(Oc2nc3cc(F)c(F)cc3s2)cc1O [NZ-407, 2-{4-[(5,6-difluoro-1,3-benzothiazol-2-yl)oxy]-2-hydroxyphenyl}-N-(propan-2-yl)acetamide]
IC50 ([1]; read-out: IC50): 0.11 µM
MIC [2, 4]: 11.7 µM (≈ 4.43 µg/mL)

CONC(=O)C(OC)c1ccc(Oc2nc3ccc(Cl)cc3s2)cc1 (centres unmarked) [NZ-357, 2-{4-[(6-chloro-1,3-benzothiazol-2-yl)oxy]phenyl}-N,2-dimethoxyacetamide]
IC50 ([1]; read-out: IC50): 3.6 µM
MIC [2, 4]: 20 µM (≈ 7.58 µg/mL)
concentrations at which not toxic, s. cerevisiae cytotoxicity [3]: ≥ 100 µM

CC(C)(C)OC(=O)NCc1ccc(Oc2nc3ccc(Cl)cc3s2)cc1 [NZ-347, tert-butyl N-({4-[(6-chloro-1,3-benzothiazol-2-yl)oxy]phenyl}methyl)carbamate]
IC50 [1]: Not Active
MIC [2, 4]: 15 µM (≈ 5.86 µg/mL)
concentrations at which not toxic, s. cerevisiae cytotoxicity [3]: ≥ 100 µM

COC(=O)CCc1ccc(Oc2nc3ccc(Cl)cc3s2)cc1 [NZ-280, methyl 3-{4-[(6-chloro-1,3-benzothiazol-2-yl)oxy]phenyl}propanoate]
inhibition at 20 µM [1]: 50%
MIC [2, 4]: 6 µM (≈ 2.09 µg/mL)

O=C(O)c1ccc(Oc2nc3ccc(Cl)cc3s2)cc1 [NZ-288, 4-[(6-chloro-1,3-benzothiazol-2-yl)oxy]benzoic acid]
IC50 ([1]; read-out: IC50): 12 µM
MIC [2, 4]: 25 µM (≈ 7.64 µg/mL)

COC(=O)Cc1ccc(Oc2nc3ccc(Cl)cc3o2)cc1 [NZ-302, methyl 2-{4-[(6-chloro-1,3-benzoxazol-2-yl)oxy]phenyl}acetate]
inhibition at 20 µM [1]: 50%
MIC [2, 4]: 3 µM

Clc1ccc2nc(Oc3ccc(OCc4ncco4)cc3)cnc2c1 [NZ-271, 6-chloro-2-[4-(1,3-oxazol-2-ylmethoxy)phenoxy]quinoxaline]
IC50 ([1]; read-out: IC50): 11.6 µM
MIC [2, 4]: > 50 µM

NC(=O)COc1ccc(Oc2cnc3cc(Cl)ccc3n2)cc1 [NZ-258, 2-{4-[(6-chloroquinoxalin-2-yl)oxy]phenoxy}acetamide]
IC50 ([1]; read-out: IC50): 2.1 to 3.1 µM
MIC [2, 4]: 50 µM (≈ 16.5 µg/mL)

COC(=O)c1ccc(Oc2nc3ccc(Cl)cc3s2)cc1 [NZ-285, methyl 4-[(6-chloro-1,3-benzothiazol-2-yl)oxy]benzoate]
IC50 [1]: Not Active
MIC [2, 4]: 12 µM (≈ 3.84 µg/mL)

Cn1nnnc1COc1ccc(Oc2cnc3cc(Cl)ccc3n2)cc1 [NZ-270, 6-chloro-2-{4-[(1-methyl-1H-1,2,3,4-tetrazol-5-yl)methoxy]phenoxy}quinoxaline]
IC50 ([1]; read-out: IC50): 9.7 µM
MIC [2, 4]: > 50 µM

CC(C)NC(=O)Nc1ccc(Oc2nc3ccccc3s2)cc1 [NZ-360, 1-[4-(1,3-benzothiazol-2-yloxy)phenyl]-3-(propan-2-yl)urea]
IC50 ([1]; read-out: IC50): 13.3 µM
MIC [2, 4]: 4.3 µM (≈ 1.41 µg/mL)
concentrations at which not toxic, s. cerevisiae cytotoxicity [3]: ≥ 100 µM

O=C(O)/C=C/c1ccc(Oc2nc3ccc(Cl)cc3s2)cc1 [NZ-283, (2E)-3-{4-[(6-chloro-1,3-benzothiazol-2-yl)oxy]phenyl}prop-2-enoic acid]
inhibition at 20 µM [1]: 33%
MIC [2, 4]: 12 µM (≈ 3.98 µg/mL)

CN1CCN(C(=O)COc2ccc(Oc3cnc4cc(Cl)ccc4n3)cc2)CC1 [NZ-278, 2-{4-[(6-chloroquinoxalin-2-yl)oxy]phenoxy}-1-(4-methylpiperazin-1-yl)ethan-1-one]
IC50 ([1]; read-out: IC50): 1.1 µM
MIC [2, 4]: 3.1 µM (≈ 1.28 µg/mL)
